Assay results: patent publication US9556242B2, “Method for regulating circadian rhythms” (ANYGEN CO., LTD., priority 2011, dated 2017)
“Also recorded” adds a separate entry of the source.

System: per2 promoter
Assay: Per2-luciferase activity in cultured mouse brain sections including SCN after NQ peptide treatment
Format: cell-based
Conditions: for phase-advance effect on Per2 circadian activity: NQ peptide forms and mutants treated to incubated brain section including SCN (FIG. 15); for effects in the Per2 phase advance or delay: 100 nM for 4 hours; for phase changes / activity period of per2 promoter: treated at the highest point of per2 activity; for phase changes / activity period of per2 promoter / free-running period after treatment: 5 μM (FIG. 12); for free-running period after treatment: treated at the lowest point of per2 activity
Protocol: Animals used in this experiment were transgenic mice in which the construct inserted Luciferase gene behind per2 promoter was knocked-in. The mice were sacrificed. The brain was speedily isolated and sectioned in a thickness of 400 μm including SCN. The mouse brain tissue sections were incubated in media containing 1% penicillin/streptomycin antibiotics, 25% Horse Serum, 25% Hank's Buffered Salt Solution (HBSS), 50% Minimum Essential Medium (MEM) and 0.3 mM luciferin. At 5 days after the incubation, the synthetic NQ peptides were treated with 5 μM of final concentration. Then, luciferase activity derived from changes of per2 promoter activities was observed.
The NQ peptides were treated with 100 nM of the concentration at 2, 6, 10, 14, 20 and 22 hours after the peak in Per2 activity with the 24-hour intervals wave. The treatment was maintained 4 hours. Then, the media were changed.
The NQ peptides were treated with 2 nM, 20 nM, 200 nM and 2000 nM of the concentrations for 4 hours to the sections at 10 hours after the peak in Per2 activity. Then, the media were changed to the original media (50% minimum essential medium, 25% gey's balanced salt solution, 25% horse serum, 36 mM glucose, and 100 units/ml aerosolized antibiotics) containing 0.3 mM luciferin to limit drug duration of the NQ peptide.
To achieve this, the present inventors have synthesized mutants: deletion mutant sequencing from first Asn to tenth Leu among the amino acid sequences as set forth in SEQ ID NO:2; optical isomer mutant 1 in which the second Trp residue is modified to D-form Trp; and optical isomer mutant 2 in which the eleventh Lys residue is modified to D-form Lys.
The NQ peptide as set forth in SEQ ID NO:2 or 3, or the NQ peptide mutants were respectively treated to the incubated brain section including SCN. Particularly, the NQ peptide as set forth in SEQ ID NO:2 found in humans and mouse was simultaneously treated with the a-NQ-S antibody as neutralization substance to elucidate those specific effects with more accuracy. […] Therefore, it could be understood that the carboxyl-terminus sequencing from the eleventh Lys residue to Gln as well as the second Trp residue and the eleventh Lys residue in the amino acid sequence of NQ peptide as set forth in SEQ ID NO:2 are very important in physiological activity.

effects in the Per2 phase advance or delay (treated at 2 hours after the peak in Per2 activity (FIG. 13)) | effects in the Per2 phase advance or delay (treated at 6 hours after the peak in Per2 activity (FIG. 13)) | effects in the Per2 phase advance or delay (treated at 10 hours after the peak in Per2 activity (FIG. 13)) | effects in the Per2 phase advance or delay (treated at 14 hours after the peak in Per2 activity (FIG. 13)) | effects in the Per2 phase advance or delay (treated at 20 hours after the peak in Per2 activity (FIG. 13)) | highest effect time (after peak in Per2 activity) (100 nM, phase-dependent treatment (FIG. 13)) [h] | concentration range in which Per2 expression period was advanced proportionally (4 hours treatment at 10 hours after the peak in Per2 activity (FIG. 14)) [nM] | free-running period advanced by (synthetic NQ peptide treated at the lowest point in Per2 phase, mouse brain section (FIG. 12)) | phase changes / activity period of per2 promoter | phase changes / activity period of per2 promoter (listed as synthetic NQ peptide) | highest concentration of the NQ peptide (phase-advance effect) (treated at the lowest point in Per2 phase (FIG. 14)) [nM] | free-running period after treatment | free-running period after treatment (listed as synthetic NQ peptide) | activity period of per2 promoter (treated at the point in which per2 shows the highest activity, 5 μM) | Substance | phase-advance effect on Per2 circadian activity | effects in the Per2 phase advance or delay (treated at 22 hours after the peak in Per2 activity (FIG. 13)) | dose dependence of Per2 phase-advance effect (2, 20, 200, 2000 nM for 4 hours at 10 hours after the peak (lowest point) in Per2 activity (FIG. 14)) | phase-advance effect on Per2 circadian activity (listed as NQ peptide as set forth in SEQ ID NO:2)
 |  |  |  |  |  |  |  |  |  |  |  |  |  | NQ peptide as set forth in SEQ ID NO:3: form of the NQ peptide found in rat; His residue at the carboxyl-terminus instead of the amide group (NWTPQAMLYLKGAQGH; NQ Peptide 3) | caused the advance effects in circadian activity; also recorded: changed the Per2 phase; also recorded: showed phase-advance effects of Per2 |  |  | 
negligible or barely shown | negligible or barely shown | significantly advanced | significantly advanced | significantly advanced | 10 | 20 to 200 | approximately 2.80 hours | not changed | negligible or barely shown | 200 | approximately 22.3 hours | approximately 22.87 hours | approximately 24 hours | NWTPQAMLYLKGAQ-NH2 [NQ peptide] |  | negligible or barely shown; also recorded: negligible | advanced proportionally to the concentration; also recorded: dose-dependent manner | caused the advance effects in circadian activity; also recorded: changed the Per2 phase; also recorded: showed phase-advance effects of Per2
